{"source": "BindingDB's records for doi:10.1021/cb500512z", "about": "(University of Wisconsin-Milwaukee, 2014)", "biological_target": "Genome polyprotein (Hepacivirus C, UniProt A3EZJ3)", "sequence (A3EZJ3 whole entry)": "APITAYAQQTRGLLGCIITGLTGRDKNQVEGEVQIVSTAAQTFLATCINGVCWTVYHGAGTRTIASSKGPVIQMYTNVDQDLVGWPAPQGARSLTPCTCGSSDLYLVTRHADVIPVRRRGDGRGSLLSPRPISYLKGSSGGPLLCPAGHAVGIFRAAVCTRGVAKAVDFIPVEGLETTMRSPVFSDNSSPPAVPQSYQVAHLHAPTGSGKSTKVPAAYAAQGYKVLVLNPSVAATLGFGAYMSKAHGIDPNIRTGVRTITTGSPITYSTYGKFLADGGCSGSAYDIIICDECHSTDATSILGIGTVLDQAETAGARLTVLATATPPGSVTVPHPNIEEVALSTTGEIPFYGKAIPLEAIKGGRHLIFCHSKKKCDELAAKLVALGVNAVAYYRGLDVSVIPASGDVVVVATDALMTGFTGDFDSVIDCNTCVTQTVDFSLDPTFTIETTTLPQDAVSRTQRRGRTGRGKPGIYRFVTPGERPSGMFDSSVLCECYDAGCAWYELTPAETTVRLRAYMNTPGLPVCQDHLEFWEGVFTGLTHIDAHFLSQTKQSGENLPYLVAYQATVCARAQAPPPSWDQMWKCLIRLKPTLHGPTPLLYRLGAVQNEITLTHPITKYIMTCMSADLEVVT", "test": "EMSA", "conditions": "pH 7.5; 23 °C", "protocol": "Binding assays containing 25 mM MOPS pH 7.5, 1.25 mM MgCl2, 20 nM Cy5-dT15, and 200 nM NS3h_1b were incubated 5 min at RT. Following addition of indicated concentrations of ebselen, the binding reactions were incubated another 5 min at 23 C."}
{"molecule": "Cc1ccccc1NC(=O)Cn1sc2ccccc2c1=O", "values": [{"measurement": "IC50", "value": 3.9, "unit": "µM"}]}
